Test system: T-47D spheroids with HUVEC/MSC, viability
Test: Anticancer human tumor T-47D cell line growth inhibition [PI3K];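 note: spheroids exposed to agents for seven days before reading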;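 for viability, T/C: percent of DMSO vehicle control luminescence so 100% = untreated growth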
Details: for IC50: curve of first compound; for viability, T/C: stronger effect = lower value
Method in brief: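 Spheroid viability read-out. Co-cultures contained the tumor line plus HUVEC and human MSCs. Each agent was paired with a PI3K inhibitor (inavolisib, alpelisib, duvelisib, copanlisib) across half-log dilutions starting at clinical Cmax, or at 10 microM when Cmax was unknown.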

[1] = second compound 0.0316 µM, first compound 0.0316 µM
[2] = second compound 0.0316 µM, first compound 0.1 µM
[3] = second compound 0.0316 µM, first compound 0.316 µM
[4] = second compound 0.0316 µM, first compound 1 µM
[5] = second compound 0.0316 µM, first compound 3.16 µM
[6] = second compound 0.0316 µM, first compound 10 µM
[7] = second compound 0.1 µM, first compound 0.0316 µM
[8] = second compound 0.1 µM, first compound 0.1 µM
[9] = second compound 0.1 µM, first compound 0.316 µM
[10] = second compound 0.1 µM, first compound 1 µM
[11] = second compound 0.1 µM, first compound 3.16 µM
[12] = second compound 0.1 µM, first compound 10 µM
[13] = second compound 0.316 µM, first compound 0.0316 µM
[14] = second compound 0.316 µM, first compound 0.1 µM
[15] = second compound 0.316 µM, first compound 0.316 µM
[16] = second compound 0.316 µM, first compound 1 µM
[17] = second compound 0.316 µM, first compound 3.16 µM
[18] = second compound 0.316 µM, first compound 10 µM
[19] = second compound 1 µM, first compound 0.0316 µM
[20] = second compound 1 µM, first compound 0.1 µM
[21] = second compound 1 µM, first compound 0.316 µM
[22] = second compound 1 µM, first compound 1 µM
[23] = second compound 1 µM, first compound 3.16 µM
[24] = second compound 1 µM, first compound 10 µM
[25] = second compound 3.16 µM, first compound 0.0316 µM
[26] = second compound 3.16 µM, first compound 0.1 µM
[27] = second compound 3.16 µM, first compound 0.316 µM
[28] = second compound 3.16 µM, first compound 1 µM
[29] = second compound 3.16 µM, first compound 3.16 µM
[30] = second compound 3.16 µM, first compound 10 µM
[31] = second compound 10 µM, first compound 0.0316 µM
[32] = second compound 10 µM, first compound 0.1 µM
[33] = second compound 10 µM, first compound 0.316 µM
[34] = second compound 10 µM, first compound 1 µM
[35] = second compound 10 µM, first compound 3.16 µM
[36] = second compound 10 µM, first compound 10 µM

CC(Cn1ccc(-c2ccc(C#N)c(Cl)c2)n1)NC(=O)c1cc(C(C)O)[nH]n1 (stereo unspecified) + Cc1nc(NC(=O)N2CCCC2C(N)=O)sc1-c1ccnc(C(C)(C)C(F)(F)F)c1
IC50 (second compound 0.0316 µM): > 10 µM
IC50 (second compound 0.1 µM): > 10 µM
IC50 (second compound 0.316 µM): > 10 µM
IC50 (second compound 1 µM): > 10 µM
IC50 (second compound 3.16 µM): > 10 µM
IC50 (second compound 10 µM): < 0.0316 µM
viability, T/C [1]: 97%
viability, T/C [2]: 103%
viability, T/C [3]: 118%
viability, T/C [4]: 84%
viability, T/C [5]: 88.8%
viability, T/C [6]: 63.6%
viability, T/C [7]: 109%
viability, T/C [8]: 88.2%
viability, T/C [9]: 91.8%
viability, T/C [10]: 90.9%
viability, T/C [11]: 79.5%
viability, T/C [12]: 67.9%
viability, T/C [13]: 100%
viability, T/C [14]: 101%
viability, T/C [15]: 93.8%
viability, T/C [16]: 96.8%
viability, T/C [17]: 85.7%
viability, T/C [18]: 66.6%
viability, T/C [19]: 95.5%
viability, T/C [20]: 95.8%
viability, T/C [21]: 84.4%
viability, T/C [22]: 87.6%
viability, T/C [23]: 85%
viability, T/C [24]: 63.2%
viability, T/C [25]: 82.8%
viability, T/C [26]: 73.4%
viability, T/C [27]: 61%
viability, T/C [28]: 65.8%
viability, T/C [29]: 63.1%
viability, T/C [30]: 50.4%
viability, T/C [31]: 36%
viability, T/C [32]: 42.3%
viability, T/C [33]: 44.2%
viability, T/C [34]: 45.5%
viability, T/C [35]: 36.8%
viability, T/C [36]: 37.9%

CC(C)NCC(C(=O)N1CCN(c2ncnc3c2C(C)CC3O)CC1)c1ccc(Cl)cc1 (stereo unspecified) + CC(Nc1ncnc2nc[nH]c12)c1cc2cccc(Cl)c2c(=O)n1-c1ccccc1
IC50 (second compound 0.0316 µM): > 10 µM
IC50 (second compound 0.1 µM): > 10 µM
IC50 (second compound 0.316 µM): > 10 µM
IC50 (second compound 1 µM): > 10 µM
IC50 (second compound 3.16 µM): > 10 µM
IC50 (second compound 10 µM): > 10 µM
viability, T/C [1]: 107%
viability, T/C [2]: 73.4%
viability, T/C [3]: 91.6%
viability, T/C [4]: 81.4%
viability, T/C [5]: 59.9%
viability, T/C [6]: 57.2%
viability, T/C [7]: 111%
viability, T/C [8]: 75.5%
viability, T/C [9]: 88.5%
viability, T/C [10]: 66.2%
viability, T/C [11]: 60.2%
viability, T/C [12]: 63.6%
viability, T/C [13]: 98.3%
viability, T/C [14]: 78.6%
viability, T/C [15]: 77.4%
viability, T/C [16]: 65.9%
viability, T/C [17]: 65.2%
viability, T/C [18]: 62.2%
viability, T/C [19]: 79.8%
viability, T/C [20]: 104%
viability, T/C [21]: 90.1%
viability, T/C [22]: 63.4%
viability, T/C [23]: 61.9%
viability, T/C [24]: 60.4%
viability, T/C [25]: 98.7%
viability, T/C [26]: 84.4%
viability, T/C [27]: 81.7%
viability, T/C [28]: 87.5%
viability, T/C [29]: 55.3%
viability, T/C [30]: 62.9%
viability, T/C [31]: 93.5%
viability, T/C [32]: 93.1%
viability, T/C [33]: 87.3%
viability, T/C [34]: 74%
viability, T/C [35]: 67.3%
viability, T/C [36]: 57.9%

CC(C)NCC(C(=O)N1CCN(c2ncnc3c2C(C)CC3O)CC1)c1ccc(Cl)cc1 (stereo unspecified) + Cc1nc(NC(=O)N2CCCC2C(N)=O)sc1-c1ccnc(C(C)(C)C(F)(F)F)c1
IC50 (second compound 0.0316 µM): > 10 µM
IC50 (second compound 0.1 µM): 7.98 µM
IC50 (second compound 0.316 µM): > 10 µM
IC50 (second compound 1 µM): 2.12 µM
IC50 (second compound 3.16 µM): 0.585 µM
IC50 (second compound 10 µM): < 0.0316 µM
viability, T/C [1]: 85.2%
viability, T/C [2]: 79.7%
viability, T/C [3]: 84.6%
viability, T/C [4]: 61.1%
viability, T/C [5]: 58.1%
viability, T/C [6]: 55.3%
viability, T/C [7]: 93.5%
viability, T/C [8]: 86.4%
viability, T/C [9]: 81.1%
viability, T/C [10]: 62.6%
viability, T/C [11]: 58.1%
viability, T/C [12]: 47.7%
viability, T/C [13]: 88.7%
viability, T/C [14]: 87.8%
viability, T/C [15]: 73.1%
viability, T/C [16]: 66%
viability, T/C [17]: 49.8%
viability, T/C [18]: 55.5%
viability, T/C [19]: 81.9%
viability, T/C [20]: 82.5%
viability, T/C [21]: 79.1%
viability, T/C [22]: 62.7%
viability, T/C [23]: 43.1%
viability, T/C [24]: 40.3%
viability, T/C [25]: 57.5%
viability, T/C [26]: 57.5%
viability, T/C [27]: 56.7%
viability, T/C [28]: 44.1%
viability, T/C [29]: 37%
viability, T/C [30]: 37.2%
viability, T/C [31]: 37.4%
viability, T/C [32]: 32.9%
viability, T/C [33]: 34.6%
viability, T/C [34]: 27%
viability, T/C [35]: 22.1%
viability, T/C [36]: 28.6%
